Ends that are not written are not given here. {propylamine} = propylamine end group; fluorescein = fluorescein label; fluor = fluorescein label
Assays:
SK-BR-3 cells [1] = conditions: 200 nM peptide, 15 minutes on ice
Procedure: FIG. 3, comprising FIG. 3A, FIG. 3B, and FIG. 3C, is a series of images of fluorescent micrographs illustrating the effects of a cell penetrating domain on the efficiency of composite receptors binding.
SK-BR-3 cells were collected and washed and resuspended in DPBS-BSA. Then, 5×10^4 cells were mixed with 200 nM CR1 or delta-CR1 in 40 μl DPBS-BSA and incubated 15 minutes on ice. The cell were then washed in DPBS-BSA, resuspended in 50 μl DPBS-BSA, washed, and applied to slides. Fluorescence was analyzed by fluorescence microscopy using a monochrome filter for FITC. […] FIG. 3C depicts cells incubated with […] CR1.

SK-BR-3 cells [2] = experiment: Localization of fluorescein labeled composite receptor peptides in cells, fluorescence microscopy (FIG. 1); type: cell-based, human; conditions: 800 nM Tat-K16, 800 nM CR1 or 400 nM CR2, 15 minutes
SK-BR-3 cells [3] = conditions: 60 nM CR1 or CR1R, 30 minutes on ice, sodium azide
Procedure: This difference in membrane orientation can be detected using an anti-FITC antibody which cannot penetrate the cellular membrane and therefore can only bind to an FITC on the outer cell surface. For CR1, FITC is an intracellular domain. However, for CR1R, FITC is an extracellular domain. […] SK-BR-3 cells were collected and washed in DPBS with 0.5% BSA (DPBS-BSA), resuspended in DPBS-BSA with 10 mM Sodium Azide, incubated for 20 minutes at room temperature, transferred to ice. 5×10^4 cells were mixed with 60 nM CR1 or CR1R in 20 μl DPBS-BSA, incubated 30 min on ice, washed in DPBS-BSA -Azide, and then resuspended in 50 μl DPBS-BSA-Azide. Then, 50 μl of anti-antibody in DPBS-BSA-Azide (dilution 1:50) was added, the suspension incubated on ice for 30 minutes, and then the cells were washed and applied to slides. Alexa-Fluor 594 fluorescence was analyzed by microscope using monochrome filter for Cy3.5.
This difference in orientation can be detected using an anti-FITC antibody which cannot penetrate the cellular membrane and therefore can only bind FITC which is on the outside cell surface and not inside the cell. […] Alexa-Fluor 594 fluorescence was analyzed using a fluorescent microscope and a monochrome filter for Cy3.5.

SupFG1 gene = experiment: Chromosomal mutations induced in the SupFG1 gene by triplex forming oligonucleotides; type: cell-based; conditions: murine cell line with SupFG1 gene in the genome; mutations/total plaques
Procedure: The ability of TAK16 to facilitate translocation of oligonucleotides designed to form triplex DNA complexes with the SupFG1 sequence was tested in a murine cell line in which the SupFG1 gene is incorporated into the genome. The assay used measures chromosomal mutations induced in the SupFG1 gene by triplex forming oligonucleotides, as measured by mutations/total plaques. The ability of TAK16 to translocate triplex forming oligonucleotides was compared to that of Antennapedia (ANTP)-s-s-oligo complex and the lipid delivery system Gene Porter. The two oligonucleotides tested were AG13 (5′-AGGAA8-propylamine-3′; SEQ ID NO: 58) and AG30 (5′-AGGAAG8TGGTG5AG5AG-propylamine-3′; SEQ ID NO: 59). The groups tested were 1) control (no treatment); 2) AG13 alone; 3) AG13+Gene Porter; 4) AG13-s-s-ANTP; 5) AG13+TAK16; 6) AG30+Gene Porter; and 7) AG30+TAK16. […] It can be seen that the two highest mutation rates occurred in cells treated with AG13+TAK16 (group 5; 40×10^−5) and AG30+TAK16 (group 7; 36×10^−5).

HeLa cells [4] = experiment: Peptide mediated uptake of oligonucleotide FITC-O-24, FACS (FIG. 7); type: cell-based, human; conditions: peptide 0.0-150 μM, fifteen minutes at room temperature
Procedure: Flow cytometric analyses of cell subpopulations for these and other experiments described herein were performed using a FACS Vantage flow cytometer (Becton-Dickinson Immunocytometry Systems, San Jose, Calif.). The cells were excited at 488 nm. The FITC fluorescence was collected through a 530/30 nm band pass filter. A minimum of ten thousand cells was interrogated in each sample. Analysis of data was performed using CellQuest software (Becton-Dickinson).
To detect fluorescent labeled molecules associated with cells, the cells were first harvested in DPBS, incubated with a fluorescent labeled molecule of interest at varied concentrations (e.g., oligonucleotide at 50 μM mixed with 1×10^5 cells in 10 μl DPBS), incubated for 15 minutes at room temperature, diluted with 200 μl growth medium, and then analyzed by fluorescence activated cell sorting (FACS).
Next, various peptide sequences and domains were tested for their abilities to facilitate translocation of the oligonucleotide FITC-O-24 across a cell membrane. The peptides tested included: K16 (G4K16; SEQ ID NO: 47); TAT (G4YGRKKRRQR3; SEQ ID NO: 48); TAK8 (G4YGRKKRRQR3G4K8; SEQ ID NO: 49); TAK12 (G4YGRKKRRQR3G4K12; SEQ ID NO: 50) and TAK16/TatK16 (G4YGRKKRRQR3G4K16; SEQ ID NO: 36). HeLa cells (1×10^5) were incubated with the oligonucleotide (0.6 μl, 50 μM) in 10 μl DPBS and various concentrations of the peptides (i.e., 0.0, 1.5, 5.0, 15.0, 50.0, or 150 μM). The cells were incubated in the presence of the mixtures for fifteen minutes at room temperature and then analyzed by FACS.

HeLa cells [5] = experiment: TAK16 mediated uptake of Cy3 labeled 400 bp double stranded DNA and 5 kb plasmid DNA (FIG. 11); type: cell-based, human
Procedure: Next, it was decided to determine whether even larger nucleotides, including double stranded (DS) DNA or plasmid DNA, could be transported into a cell. Specifically, it was determined whether TAK16 could facilitate the transport of 400 base pair (bp) double stranded DNA and a 5 kb circular plasmid DNA (pECFP; enhanced cyano fluorescent protein) into cells. The DNAs were labeled with Cy3 reagent (“Label IT” Cy3 Nucleic Acid Labeling Kit; Mirus, Madison, Wis.), according to manufacturer's directions. This protocol usually yields one label per up to ten nucleotides. To this end, HeLa cells were prepared as above and then incubated with 400 ng of plasmid DNA or 60 ng of 400 bp DNA and with TAK16 (12 μM).

HeLa cells [6] = experiment: TAK16 mediated uptake of FITC-O-24, fluorescence microscopy (FIG. 8); type: cell-based, human; conditions: TAK16 0.00, 0.36, 1.80 or 9.00 μM, FITC-O-24 2.5 μM
HeLa cells [7] = experiment: TAK16 mediated uptake of 83-mer oligonucleotide O-83-FITC, FACS and fluorescence microscopy (FIG. 9, 10); type: cell-based, human; conditions: TAK16 13.3 μM, O-83-FITC 0.00-1.8 μM
SK-BR-3 cells [8] = experiment: Peptide facilitated translocation of Cy3-O18 oligonucleotide, fluorescence microscopy (FIG. 6); type: cell-based, human; conditions: for Cy3 label of the oligonucleotide in cells: mixture of Cy3-oligonucleotide and fluorescein labeled peptide
HeLa cells [9] = experiment: Peptide-oligo mediated uptake of horseradish peroxidase-avidin (HPA), cytochemical analysis (FIG. 13); type: cell-based, human; conditions: TAK16 and Bio-O-22, 30 minutes at 37° C.
Procedure: To further determine the ability of a fusion peptide to facilitate transport of a molecule associated with a nucleic acid across a cell membrane, TAK16 was tested for its ability to mediate transport of another protein. In this example, the protein horseradish peroxidase (HRP) was tested. The HRP was conjugated to avidin to yield 120 kD Horseradish Peroxidase-Avidin (HPA). Cells were obtained as above. HPA and Bio-O-22 were added to cells in DPBS at final concentrations of 8 μM and 8 μM, respectively, and then incubated for 15 minutes at room temperature. Then, 2.5 μl of the mix was added to 2×10^5 HeLa cells in 10 μl DPBS. Next, 12.5 μl of 100 μM TAK16 in DPBS was added to the mixture and incubated for 30 minutes at 37° C. Then the cells were washed and applied to slides. Cells on the slides were treated with 30 μl peroxidase suppressor solution to suppress endogenous peroxidase, washed with DPBS, treated with 30 μl Metal Enhanced DAB Substrate Working Solution, incubated for 15 minutes at room temperature, and then subjected to microscopic analysis. […] HPA activity or presence was detected using the DAB kit and the manufacturer's protocol.

SK-BR-3 cells [10] = experiment: Translocation of fluorescein labeled peptides containing a cell penetrating domain (FIG. 5); type: cell-based, human; conditions: 800 nM peptide, fifteen minutes at 37° C.
HeLa cells [11] = experiment: Peptide-oligo mediated uptake of avidin-FITC (FIG. 12); type: cell-based, human
[12] = Intracellular transport of beta-galactosidase conjugated to an oligonucleotide; type: cell-based; conditions: similar experiments

## fluor-G3YGRKKRRQR3G3AAL3A19WK8-biotin [CR1]
SK-BR-3 cells [1]
  FITC fluorescence on the cell membrane: high levels of fluorescence occur on the cell membrane
SK-BR-3 cells [2]
  localization of fluorescein labeled peptide in the cell: localized at the periphery of the cells, in a speckled distribution

## biotin-G3YGRKKRRQR3G3AAL3A19WK8-FITC [CR1R]
SK-BR-3 cells [3]
  fluorescence of anti-fluorescein (anti-FITC) antibodies, Alexa-Fluor 594: higher

## FITC-G3G3AAL3A19WK8-biotin [delta-CR1]
SK-BR-3 cells [1]
  FITC fluorescence on the cell membrane: low level of fluorescence on the cell membrane

## 5′-AGGAA8-propylamine-3′ (AGGAAAAAAAAA; 3' {propylamine}, sugars by position and backbone not given here) [AG13]
SupFG1 gene
  chromosomal mutation frequency induced in the SupFG1 gene: 8 ×10^−5

## G4YGRKKRRQR3G4K8 (GGGGYGRKKRRQRRRGGGGKKKKKKKK; Human immunodeficiency virus type 1) [TAK8]
HeLa cells [4]
  facilitating transport of FITC-O-24 across the cell membrane: decreased ability to facilitate transport

## G4YGRKKRRQR3G4K12 (GGGGYGRKKRRQRRRGGGGKKKKKKKKKKKK; Human immunodeficiency virus type 1) [TAK12]
HeLa cells [4]
  facilitating transport of FITC-O-24 across the cell membrane: decreased ability to facilitate transport

## G4K16 (GGGGKKKKKKKKKKKKKKKK; FITC-0-24 oligonucleotide cell membrane translocation facilitating peptide) [reference compound]
HeLa cells [4]
  facilitating transport of FITC-O-24 across the cell membrane: Neither TAT, nor adapter domain, K16, were able to efficiently facilitate transport

## fluor-G4YGRKKRRQR3G4K16 (fluorescein-GGGGYGRKKRRQRRRGGGGKKKKKKKKKKKKKKKK) [Tat-K16]
HeLa cells [5]; TAK16 12 μM
  cells with uptake of large double stranded DNA molecules, linear and circular: ~100%
HeLa cells [5]; […], TAK16 12 μM or no peptide
  uptake of Cy3 labeled 400 bp DS DNA or plasmid DNA (fluorescence): obvious fluorescence
HeLa cells [6]
  fluorescent intensity associated with FITC-O-24: increased in the cells incubated with increased amounts of TAK16 peptide
HeLa cells [7]; FACS
  cell associated fluorescent intensity of O-83-FITC (FACS): increased with increasing amounts of the 83-mer
HeLa cells [7]; fluorescent microscopic analysis
  cellular associated fluorescence of O-83-FITC (microscopy): increased cellular associated fluorescence
SK-BR-3 cells [8]; 500 nM oligonucleotide and 80 nM peptide, fifteen minutes at 37° C.
  oligonucleotide Cy3-O18 translocation through the cell membrane: facilitated
SK-BR-3 cells [8]
  Cy3 label of the oligonucleotide in cells: located in the cytoplasm as well as in the nucleus
HeLa cells [9]
  HPA uptake, with oligonucleotide Bio-O-22: facilitated
SK-BR-3 cells [10]
  entry of peptide into the cell and localization: entered the cell and were located in both the cytoplasm and the nucleus
HeLa cells [11]; TAK16 + Bio-O-22 + avidin-FITC, 20 minutes at 37° C.
  fluorescence of avidin-FITC in cells, with oligonucleotide Bio-O-22: much higher levels of fluorescence
HeLa cells [11]; TAK16 and avidin-FITC, without Bio-O-22
  fluorescence of avidin-FITC in cells, no oligonucleotide: did not exhibit appreciable levels of fluorescence
[12]
  intracellular transport of a 140 kD protein (beta-galactosidase) conjugated to an oligonucleotide: able to facilitate intracellular transport
SK-BR-3 cells [2]
  localization of fluorescein labeled peptide in the cell: located throughout the cell
HeLa cells [4]
  facilitating transport of FITC-O-24 across the cell membrane: most efficient

## fluor-G4YGRKKRRQR (fluorescein-GGGGYGRKKRRQR) [Tat, reference compound]
SK-BR-3 cells [8]
  Cy3 label of the oligonucleotide in cells: not detected

B1: fluor-G4YGRKKRRQR3G3MPNLWFL2FLGLVA2MQL5FL3F2LVYW DHFECSCTGLPF (peptide)
chain: fluor-GGGGYGRKKRRQRRRGGGMPNLWFLLFLGLVAAMQLLLLLFLLLFFLVYWDHFECSCTGLPF
SK-BR-3 cells [2]
  localization of fluorescein labeled peptide in the cell: localized in a few foci at the cell surface

From patent US20030170826A1, “Peptides for facilitating composite receptor expression and translocation of macromolecules” (priority 2001, published 2003)
